Assays:
[1] = biological target: T1, human recombinant COX-2 (Homo sapiens, UniProt P35354); assay: COX Inhibitor Screening Assay, COX-2 (EIA of PGF2α); assay type: biochemical; details: for IC50: human recombinant COX-2, Cayman COX inhibitor screening assay kit; for SI (selectivity index, COX-1 IC50/COX-2 IC50): ratio COX-1 IC50/COX-2 IC50; for selective inhibition against COX-2: statement in words, COX-2 versus COX-1
T1 construct: purchased Cayman Chemical, USA 560131
T1 sequence (P35354 18-604): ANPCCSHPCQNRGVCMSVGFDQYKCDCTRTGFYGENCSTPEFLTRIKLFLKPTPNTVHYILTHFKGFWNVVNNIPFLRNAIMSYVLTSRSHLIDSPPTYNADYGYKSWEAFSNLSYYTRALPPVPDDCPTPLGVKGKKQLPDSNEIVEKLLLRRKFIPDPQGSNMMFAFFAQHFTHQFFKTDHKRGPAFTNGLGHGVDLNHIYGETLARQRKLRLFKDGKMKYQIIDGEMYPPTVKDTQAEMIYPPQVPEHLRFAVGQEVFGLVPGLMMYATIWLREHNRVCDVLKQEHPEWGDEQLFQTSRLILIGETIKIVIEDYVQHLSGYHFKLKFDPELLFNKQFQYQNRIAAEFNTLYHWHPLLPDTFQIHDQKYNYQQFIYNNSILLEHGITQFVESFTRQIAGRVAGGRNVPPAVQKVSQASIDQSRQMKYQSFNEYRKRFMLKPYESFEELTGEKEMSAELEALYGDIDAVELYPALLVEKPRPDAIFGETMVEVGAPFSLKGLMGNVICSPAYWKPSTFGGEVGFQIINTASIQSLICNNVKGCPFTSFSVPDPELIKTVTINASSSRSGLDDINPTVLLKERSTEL
Excerpt: (§1) 2-Butanone, ethylcyanoacetate (≥98%), dimethylformamide (≥99.5%), ethanol (≥99%), n-hexane, cyanamide and sulphur (≥99.5%) were bought from Acros Chemical (USA). Diethylamine, sodium sulphate anhydrous and analytical grade NaOH pellets were bought from Fisher Scientific (UK). 1,4-dioxane, concentrated HCl, ethyl acetate, hexane, chloroform, 4-fluorobenzoyl chloride (98%) , 4-methoxyphenyl acetonitrile (≥97%), 4-fluorophenyl acetonitrile (≥99%), and 2-(trifluoromethyl)benzoyl chloride were bought from Aldrich Chemicals. TLC Silica gel 60 F254 was obtained from Merck, USA. COX inhibitor screening assay kit (Item no. 560131) was procured from Cayman Chemical, USA.
(§2) The COX (ovine) Inhibitor Screening Assay was performed mainly to determine the selective inhibition of tested compounds (4a, 4b, 5a, 5b) towards the ovine COX-1 and human recombinant COX-2 isoenzymes. The addition of arachidonic acid (AA) helped to convert the COX component into PGG2, followed by reduction of PGG2 into PGH2. The following addition of SnCl2 converted PGH2 into PGF2α. The assay directly measures the PGF2α0 via enzyme immunoassay (EIA) using a broadly specific antiserum that bound to all PG tracers. Depending on the tested compounds inhibitory effect, the concentration of PGF2α in each well varied and was inversely proportional to the amount of PG tracers that was able to bind to the antiserum. PG tracers-antiserum complex was left to bind to the mouse monoclonal anti-rabbit antibody that has been coated to the well during the 18 hours incubation. Ellman's reagent was added to give distinct yellow coloration to the products from this enzymatic reaction, which absorbed strongly at 412 nm. The intensity of the color was proportional to the amount of PG tracers-antiserum complex bound to the well, which was inversely proportional to the concentration of PGF2α present.
(§3) The inhibitory activity of tested compounds was determined based on IC50 values whereas the selectivity was based on their selectivity indices (SI), which defined as COX-1 IC50/COX-2 IC50. In the assay system, indomethacin was used as non-selective COX inhibitor standard while NS-398 was used as COX-2 selective inhibitor standard.

[2] = biological target: T2, ovine COX-1 (Ovis aries, UniProt P05979); assay: COX (ovine) Inhibitor Screening Assay, COX-1 (EIA of PGF2α); assay type: biochemical; details: Cayman COX inhibitor screening assay kit
T2 construct: purchased Cayman Chemical, USA 560131
T2 sequence (P05979 25-600): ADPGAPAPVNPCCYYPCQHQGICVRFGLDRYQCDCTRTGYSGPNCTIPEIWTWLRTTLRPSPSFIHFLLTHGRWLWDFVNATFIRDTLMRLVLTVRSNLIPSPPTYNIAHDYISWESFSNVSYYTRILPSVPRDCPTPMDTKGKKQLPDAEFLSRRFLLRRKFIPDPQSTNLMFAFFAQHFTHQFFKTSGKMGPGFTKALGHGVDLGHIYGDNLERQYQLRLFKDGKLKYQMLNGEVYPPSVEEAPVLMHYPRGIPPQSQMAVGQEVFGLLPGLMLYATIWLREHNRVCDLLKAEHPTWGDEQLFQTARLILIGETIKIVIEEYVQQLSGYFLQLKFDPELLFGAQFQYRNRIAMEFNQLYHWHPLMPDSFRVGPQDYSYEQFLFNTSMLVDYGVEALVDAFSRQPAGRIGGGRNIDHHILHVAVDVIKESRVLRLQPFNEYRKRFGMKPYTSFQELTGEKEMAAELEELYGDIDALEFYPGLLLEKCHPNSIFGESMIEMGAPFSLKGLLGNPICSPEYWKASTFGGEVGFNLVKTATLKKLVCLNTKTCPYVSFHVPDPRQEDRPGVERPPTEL
Excerpt: as §1, §2, §3

IC50 [1] [µM]	SI (selectivity index, COX-1 IC50/COX-2 IC50) [1]	selective inhibition against COX-2 [1]	IC50 [2] [µM]	Compound
42.2	4.81	mild selective inhibition	203	Cc1sc2nc(Cc3ccc(F)cc3)[nH]c(=O)c2c1C [Compound 4a, 2-(4-Fluorobenzyl)-5,6-dimethylthieno[2,3-d]pyrimidin-4(3H)-one]
143	4.11	mild selective inhibition	586	COc1ccc(Cc2nc3sc(C)c(C)c3c(=O)[nH]2)cc1 [Compound 4b, 2-(4-Methoxybenzyl)-5,6-dimethylthieno[2,3-d]pyrimidin-4(3H)-one]
103	1.08	mild selective inhibition	112	Cc1sc2nc(NC(=O)c3ccc(F)cc3)[nH]c(=O)c2c1C [Compound 5a, N-(5,6-Dimethyl-4-oxo-3,4-dihydrothieno[2,3-d]pyrimidin-2-yl)-4-fluorobenzamide]
189	0.12	mild selective inhibition	21.8	Cc1sc2nc(NC(=O)c3ccccc3C(F)(F)F)[nH]c(=O)c2c1C [Compound 5b, N-(5,6-dimethyl-4-oxo-3,4-dihydrothieno[2,3-d]pyrimidin-2-yl)-2-(trifluoromethyl)benzamide]
